# Test results as given in paper PMC11091220, “Metabolism-driven in vitro/in vivo disconnect of an oral ERɑ VHL-PROTAC” (Communications Biology, 2024).
# Read-outs that look alike come from different tables or passages of the source.
# Key:
# [1] = biological target: T1, recombinant human ERα ligand binding domain (LBD) (Homo sapiens, UniProt P03372); assay: ERα binding assay (LanthaScreen TR-FRET competition); settings: mean ± s.d.; read-out: ERα binding IC50
# T1 construct: purchased Invitrogen PV4543
# T1 sequence (P03372 311-547 limits assumed): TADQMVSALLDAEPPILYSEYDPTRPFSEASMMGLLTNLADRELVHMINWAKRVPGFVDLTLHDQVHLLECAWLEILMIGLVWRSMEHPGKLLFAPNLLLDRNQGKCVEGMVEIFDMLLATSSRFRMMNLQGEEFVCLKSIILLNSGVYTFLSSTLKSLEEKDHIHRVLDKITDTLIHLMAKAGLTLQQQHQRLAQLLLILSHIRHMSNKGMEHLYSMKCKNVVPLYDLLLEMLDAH
# Protocol: The ability of compounds to bind to isolated ERα Ligand binding domain (ERα–LBD (GST)) was assessed in competition assays using a LanthaScreenTM Time-Resolved Fluorescence Resonance Energy Transfer (TR-FRET) detection end-point. For the LanthaScreen TR-FRET endpoint, a suitable fluorophore (Fluormone ES2, Product code P2645) and recombinant human ERα ligand binding domain (LBD) (product code PV4543) were purchased from Invitrogen and used to measure compound binding. A terbium-labelled anti-GST antibody (Product code PV3551) is used to indirectly label the receptor by binding to its GST tag, and competitive binding is detected by a test compounds’ ability to displace the fluorescent ligand resulting in a loss of TR-FRET signal between the Tb-anti-GST antibody and the tracer. The assay was performed with all reagent additions carried out using the Beckman Coulter BioRAPTR FRD microfluidic workstation: […]
# [2] = biological target: T2, ERα (Homo sapiens, UniProt P03372, D538G); assay: CTC174 ex vivo studies, ERα by western blot; format: cell-based; settings: for ERα % of DMSO control: CTC174 ex vivo; for remaining activity at 1 µM: read-out: ERα levels, % of control
# T2 construct: from tissue; host or cells: CTC174 PDX tumours grown in female NSG mice; for the ex vivo work, single cells disaggregated from these tumours
# T2 sequence (P03372 1-595 D538G): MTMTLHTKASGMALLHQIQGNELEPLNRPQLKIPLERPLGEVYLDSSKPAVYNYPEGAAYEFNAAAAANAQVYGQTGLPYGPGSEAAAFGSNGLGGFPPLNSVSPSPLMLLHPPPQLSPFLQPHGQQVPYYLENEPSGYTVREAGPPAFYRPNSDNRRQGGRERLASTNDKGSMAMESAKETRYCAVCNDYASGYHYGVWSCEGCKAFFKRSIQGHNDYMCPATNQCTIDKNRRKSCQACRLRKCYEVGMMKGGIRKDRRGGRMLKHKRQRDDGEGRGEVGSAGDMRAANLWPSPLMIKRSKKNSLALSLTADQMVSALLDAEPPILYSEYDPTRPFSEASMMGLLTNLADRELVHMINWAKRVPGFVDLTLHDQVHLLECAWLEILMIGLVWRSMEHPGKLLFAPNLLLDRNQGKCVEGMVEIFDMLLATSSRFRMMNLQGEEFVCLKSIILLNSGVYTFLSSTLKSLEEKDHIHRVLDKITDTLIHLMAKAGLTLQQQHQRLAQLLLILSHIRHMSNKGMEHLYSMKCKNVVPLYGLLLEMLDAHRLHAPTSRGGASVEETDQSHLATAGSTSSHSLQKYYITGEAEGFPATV
# Protocol: CTC174 tumours were collected from donor mice, all fat, mouse tissue and necrotic areas removed and the resultant tumour placed in ice cold PBS and kept on ice. Using forceps, the tumour was then minced into small pieces (1-2 mm). Once minced, the tissue was colleced, placed into a gentlMACS C tube with 4.7 mL DMEM/F12 and enzymes H, R and A (Miltenyi Tumour Dissociation Kit), and run on the gentleMACS Octo Dissociator (Program 37C_h_TDK_2). After dissociation, the cell suspension was passed through a […] filter, red blood cell lysis performed using […] lysis buffer, and the resultant suspension centrifuged, resuspended in RPMI (containing 10% charcoal-stripped FCS) and 1x10^6 cell added to each well of a 6 well plate. DMSO control, AZ’3372 or AZ’6421 were added to well at a range of concentrations, left to incubate for 24 hours (37 °C, 5% CO2) and then samples prepared for western blot and ERα levels determined as described above.
# [3] = Plasma exposure of AZ’6421 and metabolite 8 in CTC174 PDX mice (free, cover over DC90); format: in vivo, mouse
# Protocol: Mice were randomised into groups of 5 once tumour sizes reached approximately 0.3 to 0.4 cm^3. A vehicle control or AZ’6421 1, 3, 10, 30, and 100 mg/kg were dosed orally, once daily (QD) or twice daily (BID) in 5% v/v DMSO, 20% v/v Solutol HS15 in purified water formulation. AZD9833 was dosed once daily at 100 mg/kg in 40% TEG/60% (of 12.5%) SBE-β-CD formulation. Mice were dosed for 4 days and tumours were harvested 6 hours after the last dose. Tumour tissue was split into 3 and immediately snap-frozen in liquid nitrogen for subsequent analysis. Plasma samples were also taken at the end of the study by terminal cardiac bleed under isoflurane anaesthesia to measure pharmacokinetics and ensure the expected exposure was reached during the dosing period.
# Each plasma sample ([…]) was prepared using an appropriate dilution factor, and compared against an 11-point standard calibration curve (1-10000 nM) prepared in DMSO and spiked into blank plasma. Acetonitrile ([…]) was added with the internal standard, followed by centrifugation at 3000 rpm for 10 minutes. The supernatant ([…]) was then diluted in […] acetonitrile:water (75:25) and analyzed via UPLC-MS/MS.
# The MS/MS instrument used was either a Waters XEVO® TQ-S, Waters XEVO® TQ-D, or API 4000 (AB Sciex). The ultra-mass spectrometer used for sample analysis was completed in the MRM mode (MS/MS). Reverse-phase HPLC with a C18 column was used to separate the analytes. A mobile phase of 99% water/0.1% formic acid (solvent A) and a solvent phase of 99% acetonitrile/0.1% formic acid (solvent B) was used. A generic LC gradient elution was used at a flow rate of 0.5 mL/min with 95% solvent A and 5% solvent B for 0.3 min after which the concentration of solvent B was increased to 95% over 0.9 min before restoring it back to 5% for the remaining 0.5 min. Mass spectrometer methods were optimised for each compound.
SMILES,IC50 [1],"ERα % of DMSO control ([2]; 1 nM, 24 hours)","ERα % of DMSO control ([2]; 10 nM, 24 hours)","ERα % of DMSO control ([2]; 30 nM, 24 hours)","ERα % of DMSO control ([2]; 100 nM, 24 hours)","ERα % of DMSO control ([2]; 300 nM, 24 hours)","ERα % of DMSO control ([2]; 1000 nM, 24 hours)","ERα degradation ([2]; CTC174 cells ex vivo, 24 hours, 10 nM and above)",remaining activity at 1 µM [2],cover for target engagement by plasma drug concentration ([3]; 100 mg/kg dose),"fraction converted to 8 within 2 hours ([3]; 100 mg/kg, from Fig. 6d)","remaining activity at 1 µM ([2]; 1000 nM, CTC174 cells ex vivo (Fig. 6f))","free plasma concentration, fold above the compounds DC90 ([3]; AZ’6421 efficacy study)","free plasma concentration, fold higher than free AZ’6421 ([3]; steady state, AZ’6421 efficacy study)"
Cc1ncsc1-c1ccc(CNC(=O)[C@@H]2C[C@@H](O)CN2C(=O)[C@@H](NC(=O)COCCCOCCCOc2cc(F)c([C@@H]3c4[nH]c5ccccc5c4C[C@@H](C)N3CC(C)(C)F)c(F)c2)C(C)(C)C)cc1 [Compound 5],< 600 pM,20.3%,12.0%,4.1%,4.2%,3.9%,3.6%,approximately 90%,< 1%,free plasma exposure > free DC90,7%,–,–,–
C[C@@H]1Cc2c([nH]c3ccccc23)[C@@H](c2c(F)cc(OCCC(=O)O)cc2F)N1CC(C)(C)F [Compound 8],< 500 pM,–,–,–,–,–,–,–,–,–,–,42%,> 10 fold,~ 10 fold
